In US20190255073A1, “ESTERS OF 3-POLYAMINE DERIVATIVES OF BILE ACIDS FOR THE TREATMENT OF INFECTIONS” (VIRBAC, priority 2016, published 2019):
Converted amounts (≈) assume the structure as drawn. Read-outs that look alike come from different tables or passages of the source.

Assays:
P. aeruginosa (1051575) [1] = assay: Potentiation of erythromycin activity; assay type: cell-based, Pseudomonas aeruginosa; details: concentration of compound required with erythromycin 2 μg/mL
Procedure: (§1) This method requires the use of a 96-well plate: 100 μL of a liquid culture medium are placed in each well and then seeded with the microbial suspension prepared previously. The required volume to be seeded is calculated for an OD of 0.01, which corresponds to about 5×10^6 bacteria in each well. In this plate, the first line corresponds to a negative control (200 μL of sterile culture medium in each well), the second line corresponds to a positive control (100 μL of sterile culture medium+100 μL of the bacterial suspension), and the third line contains 192 μL of culture medium; 8 μL of compound of formula (I) to be tested are placed in each well. Thereafter, a cascade dilution is performed from this line. μL of a doxycycline solution (1 mg dissolved in 20 mL) are then added to each well of the lines 3 to 8 to obtain a final antibiotic concentration of 2 μg/mL. 92 μL of bacterial suspension are then added to lines 3 to 8. […] After 24 hours of incubation at 37° C., 40 μL of nitro tetrazolium iodide are added to each well to reveal the presence of live bacteria by staining the medium pink.
The procedure is identical to that indicated in Example 5 above. 8 μL of an antibiotic solution under consideration (1 mg dissolved in 20 mL) are added to obtain a final antibiotic concentration of 2 μg/mL instead of 8 μL of a doxycycline solution.
(§2) The results are given in table V. They indicate the concentration of compound of formula (I) required to be able to restore the activity of the antibiotic under consideration.

S. aureus (340) = assay: MIC determination by microplate dilution, S. aureus animal strain; assay type: cell-based, Staphylococcus aureus; details: Staphylococcus aureus, Gram-positive, Mueller-Hinton medium, 24 h, 37° C.
Method in brief: (§3)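 Twofold dilution series of compounds (stock 5 mg/mL, DMSO/methanol 50/50) in Mueller-Hinton medium, seeded with bacteria at OD 0.01 from 24 h, 37 °C precultures. After 24 h at 37 °C under humid atmosphere, MIC derived from OD at 620 nm; run in duplicate.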

E. coli (1956) = assay: MIC determination by microplate dilution, E. coli animal strain; assay type: cell-based, Escherichia coli; details: Escherichia coli, Gram-negative, Mueller-Hinton medium, 24 h, 37° C.
Method in brief: as §3

S. intermedius (1051997) = assay: MIC determination by microplate dilution, S. intermedius animal strain; assay type: cell-based, Staphylococcus intermedius; details: Staphylococcus intermedius, Gram-positive, Mueller-Hinton medium, 24 h, 37° C.
Method in brief: as §3

P. aeruginosa (1051575) [2] = assay: MIC determination by microplate dilution, P. aeruginosa animal strain; assay type: cell-based, Pseudomonas aeruginosa; details: Pseudomonas aeruginosa, Gram-negative, Mueller-Hinton medium, 24 h, 37° C.
Method in brief: as §3

P. aeruginosa (1051575) [3] = assay: Potentiation of chloramphenicol activity; assay type: cell-based, Pseudomonas aeruginosa
Procedure: as §1, with “Thereafter, a cascade dilution is performed from this line. μL of a doxycycline solution (1 mg dissolved in 20 mL) are then added to each well of the lines 3 to 8 to obtain a final antibiotic concentration of 2 μg/mL.” left out
(§4) The procedure is identical to that indicated in Example 5 above. […]
as §2

E. coli ATCC28922 = assay: MIC determination by microplate dilution, E. coli human strain; assay type: cell-based, Escherichia coli; details: Escherichia coli, ATCC28922, Gram-negative, Mueller-Hinton medium, 24 h, 37° C.
Method in brief: as §3

S. aureus ATCC25923 = assay: MIC determination by microplate dilution, S. aureus human strain; assay type: cell-based, Staphylococcus aureus; details: Staphylococcus aureus, ATCC25923, Gram-positive, Mueller-Hinton medium, 24 h, 37° C.
Method in brief: as §3

E. faecalis ATCC29212 = assay: MIC determination by microplate dilution, E. faecalis human strain; assay type: cell-based, Enterococcus faecalis; details: Enterococcus faecalis, ATCC29212, Gram-positive, Mueller-Hinton medium, 24 h, 37° C.
Method in brief: as §3

P. aeruginosa (1051575) [4] = assay: Potentiation of ampicillin activity; assay type: cell-based, Pseudomonas aeruginosa; details: concentration of compound required with ampicillin 4 μg/mL
Procedure: as §1, with “Thereafter, a cascade dilution is performed from this line. μL of a doxycycline solution (1 mg dissolved in 20 mL) are then added to each well of the lines 3 to 8 to obtain a final antibiotic concentration of 2 μg/mL.” left out
as §4, §2

P. aeruginosa ATCC27853 = assay: MIC determination by microplate dilution, P. aeruginosa human strain; assay type: cell-based, Pseudomonas aeruginosa; details: Pseudomonas aeruginosa, ATCC27853, Gram-negative, Mueller-Hinton medium, 24 h, 37° C.
Method in brief: as §3

P. aeruginosa (1051575) [5] = assay: Potentiation of the doxycycline activity at 2 μg/mL; assay type: cell-based, Pseudomonas aeruginosa; details: in combination with doxycycline 2 μg/mL; 24 h, 37°
CHO-K1 cells = assay: WST1 cytotoxicity test on CHO-K1 cells; assay type: cell-based, Chinese hamster; details: Cricetulus griseus
Method in brief: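 Viability read-out: WST-1 tetrazolium cleavage by mitochondrial dehydrogenases, 20 min at 37 °C, A450. Compounds added at rising concentrations, in duplicate, to CHO-K1 cells for 24 h (37 °C, 5% CO2). IC50, the concentration halving viability, fitted by nonlinear regression.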

C. albicans = assay: Antifungal activity, cascade microdilution, C. albicans; assay type: cell-based, Candida albicans; details: Candida albicans, 24 h, read-out: IC50 (μg/mL) C. albicans
A. niger = assay: Antifungal activity, cascade microdilution, A. niger; assay type: cell-based; details: Aspergillus niger, 24 h, read-out: IC50 (μg/mL) A. niger
Procedure: 1) Preparation of the Preculture
A negative control (2 mL of sterile Mueller Hinton MH culture medium)
A positive control (1980 μL of culture medium+20 μL of yeast or fungal suspension) from a thawed biological strain (the biological strains are stored at −80° C. in glycerol).
The tubes were incubated at 37° C. for 24 hours at 100 rpm.
The chemical compounds to be tested were prepared at a concentration of 5 mg/mL (in the form of the hydrochloride in water).
2) Preparation of the Microplate for the Determination of the Minimum Inhibitory Concentration (MIC)
The MIC is obtained by using the cascade microdilution method in sterile 96-well plates. 100 μL of MH culture medium are first placed in each well, and 8 μL of the solution (5 mg/mL) of the test molecule are then added to the first wells. The volume is made up with medium to obtain a total volume of 200 μL in these wells. Serial dilution is then performed by taking 100 μL from the first well, and so on successively from well to well. 100 μL of inoculate containing 2-6×10^5 CFU of yeast or fungi are then added to each well. Certain wells are reserved for positive and negative controls.
3) Reading of the Results
After incubation, an optical density (OD) reading was taken in an iEMS plate spectrophotometer at 620 nm. Calculation of the minimum inhibitory concentration (MIC) was performed.

[6] = concentration of compound required with chloramphenicol 2 μg/mL

Row | SMILES | MIC P. aeruginosa (1051575), compound + erythromycin (P. aeruginosa (1051575) [1]) [µg/mL] | MIC (S. aureus (340)) [µg/mL] | MIC (E. coli (1956)) [µg/mL] | MIC (S. intermedius (1051997)) [µg/mL] | MIC (P. aeruginosa (1051575) [2]) [µg/mL] | MIC P. aeruginosa (1051575), compound + chloramphenicol (P. aeruginosa (1051575) [3]; [6]) [µg/mL] | MIC (E. coli ATCC28922) [µg/mL] | MIC (S. aureus ATCC25923) [µg/mL] | MIC (E. faecalis ATCC29212) [µg/mL] | MIC P. aeruginosa (1051575), compound + ampicillin (P. aeruginosa (1051575) [4]) [µg/mL] | MIC (P. aeruginosa ATCC27853) [µg/mL] | MIC - P. aeruginosa (1051575): content of compound of formula (I) to restore the doxycycline activity (at 2 μg/mL) (P. aeruginosa (1051575) [5]) [µg/mL] | MIC P. aeruginosa (1051575), compound + chloramphenicol (P. aeruginosa (1051575) [3]; concentration of compound required with chloramphenicol 4 μg/mL) [µg/mL] | IC50 (CHO-K1 cells; CHO-K1, CHO (Example 7), read-out: IC50 (μg/mL) CHO) [µg/mL] | IC50 (C. albicans; compounds as hydrochloride in water, MH medium) [µg/mL] | IC50 (CHO-K1 cells; CHO-K1, 24 h, read-out: IC50 (μg/mL) CHO) [µg/mL] | IC50 (CHO-K1 cells; CHO-K1, read-out: IC50 (μg/mL) CHO) [µg/mL] | IC50 (C. albicans) [µg/mL] | IC50 (A. niger) [µg/mL]
1 | CC(C)OC(=O)CC[C@@H](C)[C@H]1CCC2C3CCC4C[C@@H](NCCNCCNCCNCCNCCN)CC[C@]4(C)C3CC[C@@]21C (stereo partly drawn) [(26), isopropyl 3β-(pentaethylenehexamine)lithocholate] | 60 | 18 (≈ 28.4 µM) | 60 (≈ 94.8 µM) | 8 (≈ 12.6 µM) | 60 (≈ 94.8 µM) | 8 | – | – | – | – | – | – | – | – | – | – | – | – | –
2 | CC(C)OC(=O)CC[C@@H](C)[C@H]1CCC2C3CCC4C[C@@H](NCCN(CCN)CCN)CC[C@]4(C)C3C[C@H](O)[C@@]21C (stereo partly drawn) [(29), isopropyl 3β-(tris(2-aminoethyl)amine)deoxycholate] | 56 | 14 (≈ 24.9 µM) | 28 (≈ 49.7 µM) | 14 (≈ 24.9 µM) | 56 (≈ 99.5 µM) | – | 14 (≈ 24.9 µM) | 28 (≈ 49.7 µM) | 28 (≈ 49.7 µM) | 56 | 56 (≈ 99.5 µM) | 4 | 7 | – | – | – | – | – | –
3 | CC(C)OC(=O)CC[C@@H](C)[C@H]1CCC2C3CCC4C[C@@H](NCCCN(CCCN)CCCN)CC[C@]4(C)C3CC[C@@]21C (stereo partly drawn) [(47), isopropyl 3β-(tris(3-aminopropyl)amine)lithocholate] | 30 | 7 (≈ 11.9 µM) | 60 (≈ 102 µM) | 4 (≈ 6.79 µM) | 30 (≈ 50.9 µM) | 4 | – | – | – | – | – | – | – | 120 (≈ 204 µM) | 2 (≈ 3.4 µM) | – | – | – | –
4 | CC(C)OC(=O)CC[C@@H](C)[C@H]1CCC2C3C(CC[C@@]21C)[C@@]1(C)CC[C@H](NCCCN(C)CCCN)CC1C[C@@H]3O (stereo partly drawn) [(44), isopropyl 3β-(bis(3-aminopropyl)methylamine)ursodeoxycholate] | 55 | 28 (≈ 49.8 µM) | 56 (≈ 99.7 µM) | 14 (≈ 24.9 µM) | 28 (≈ 49.8 µM) | 14 | – | – | – | – | – | – | – | – | – | – | – | – | –
5 | CC(C)OC(=O)CC[C@@H](C)[C@H]1CCC2C3C(CC[C@@]21C)[C@@]1(C)CC[C@H](NCCCNCCCNCCCN)CC1C[C@H]3O (stereo partly drawn) [Compound (10), isopropyl 3β-norsperminochenodeoxycholate] | – | 2 (≈ 3.31 µM) | 10 (≈ 16.5 µM) | 0.8 (≈ 1.32 µM) | 4 (≈ 6.61 µM) | – | 16 (≈ 26.4 µM) | 4 (≈ 6.61 µM) | 8 (≈ 13.2 µM) | – | – | 2 | – | – | – | 85 (≈ 141 µM) | 85 (≈ 141 µM) | 2 (≈ 3.31 µM) | 4 (≈ 6.61 µM)
